Test results: ChEMBL document CHEMBL4602719, “Discovery of Potent, Selective, and Orally Bioavailable Inhibitors of USP7 with In Vivo Antitumor Activity” (J Med Chem, 2020)

Legend:
[1] = target: Voltage-gated inwardly rectifying potassium channel KCNH2 (Homo sapiens, UniProt Q12809); assay: Inhibition of human ERG
[2] = target: OTU domain-containing protein 7B (Homo sapiens, UniProt Q6GQQ9); assay: Inhibition of cezanne (unknown origin)
[3] = target: Ubiquitin carboxyl-terminal hydrolase 28 (Homo sapiens, UniProt Q96RU2); assay: Inhibition of human GST-tagged USP28 expressed in Escherichia coli assessed as cleavage of Ubiquitin-Rhodamine110-glycine to Ubiquitin and Rhodamine110-glycine using Ubiquitin-Rhodamine110-glycine as substrate by fluorescence based analysis
[4] = target: Ubiquitin carboxyl-terminal hydrolase 15 (Homo sapiens, UniProt Q9Y4E8); assay: Inhibition of human USP15 isoform 2 expressed in Escherichia coli assessed as cleavage of Ubiquitin-Rhodamine110-glycine to Ubiquitin and Rhodamine110-glycine using Ubiquitin-Rhodamine110-glycine as substrate by fluorescence based analysis
[5] = target: Ubiquitin carboxyl-terminal hydrolase 36 (Homo sapiens, UniProt Q9P275); assay: Inhibition of human GST-tagged USP36 CD (81 to 461 residues) expressed in Escherichia coli assessed as cleavage of Ubiquitin-Rhodamine110-glycine to Ubiquitin and Rhodamine110-glycine using Ubiquitin-Rhodamine110-glycine as substrate by fluorescence based analysis
Sequence of Ubiquitin carboxyl-terminal hydrolase 36 (Q9P275 whole entry, the tested form may be a part): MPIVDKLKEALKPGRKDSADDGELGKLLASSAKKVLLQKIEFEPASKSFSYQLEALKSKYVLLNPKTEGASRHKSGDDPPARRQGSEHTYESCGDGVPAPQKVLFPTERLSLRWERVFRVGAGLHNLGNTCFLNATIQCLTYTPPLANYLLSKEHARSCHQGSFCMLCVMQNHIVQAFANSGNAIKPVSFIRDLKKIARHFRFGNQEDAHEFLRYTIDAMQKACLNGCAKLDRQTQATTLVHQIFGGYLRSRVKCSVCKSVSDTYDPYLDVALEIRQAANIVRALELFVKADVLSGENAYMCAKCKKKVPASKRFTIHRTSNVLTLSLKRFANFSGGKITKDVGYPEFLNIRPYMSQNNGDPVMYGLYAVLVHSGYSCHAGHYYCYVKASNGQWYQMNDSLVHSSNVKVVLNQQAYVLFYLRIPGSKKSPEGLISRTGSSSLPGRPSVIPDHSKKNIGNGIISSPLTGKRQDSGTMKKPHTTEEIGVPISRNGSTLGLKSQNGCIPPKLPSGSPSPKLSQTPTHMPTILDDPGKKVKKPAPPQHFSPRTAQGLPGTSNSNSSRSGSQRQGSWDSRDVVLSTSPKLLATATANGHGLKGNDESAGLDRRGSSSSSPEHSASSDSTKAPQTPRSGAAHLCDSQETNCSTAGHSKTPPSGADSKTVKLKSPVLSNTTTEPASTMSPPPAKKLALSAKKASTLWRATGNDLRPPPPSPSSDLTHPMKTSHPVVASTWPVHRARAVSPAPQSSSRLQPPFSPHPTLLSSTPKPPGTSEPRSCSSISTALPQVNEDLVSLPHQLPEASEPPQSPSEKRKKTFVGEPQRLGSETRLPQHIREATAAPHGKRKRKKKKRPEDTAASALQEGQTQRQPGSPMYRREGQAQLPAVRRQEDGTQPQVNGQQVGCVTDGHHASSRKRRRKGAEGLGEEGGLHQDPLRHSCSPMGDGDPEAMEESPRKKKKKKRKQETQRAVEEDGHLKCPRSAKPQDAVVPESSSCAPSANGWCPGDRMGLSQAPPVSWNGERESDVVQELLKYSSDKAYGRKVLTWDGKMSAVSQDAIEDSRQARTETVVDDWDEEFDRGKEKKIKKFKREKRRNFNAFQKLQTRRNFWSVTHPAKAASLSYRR

[6] = target: Ubiquitin carboxyl-terminal hydrolase 19 (Homo sapiens, UniProt O94966); assay: Inhibition of human GST-tagged USP19 (1 to 1290 residues) expressed in Escherichia coli assessed as cleavage of Ubiquitin-Rhodamine110-glycine to Ubiquitin and Rhodamine110-glycine using Ubiquitin-Rhodamine110-glycine as substrate by fluorescence based analysis
[7] = target: Ubiquitin carboxyl-terminal hydrolase 27 (Homo sapiens, UniProt A6NNY8); assay: Inhibition of human DAC-tagged USP27X expressed in Escherichia coli assessed as cleavage of […]-linked di-ubiquitin to mono-ubiquitin using di-ubiquitin as substrate by mass spectrometry
[8] = target: Josephin-1 (Homo sapiens, UniProt Q15040); assay: Inhibition of human His6-tagged JOSD1 expressed in Escherichia coli assessed as cleavage of Ubiquitin-Rhodamine110-glycine to Ubiquitin and Rhodamine110-glycine using Ubiquitin-Rhodamine110-glycine as substrate by fluorescence based analysis
[9] = AUC in Sprague-Dawley rat at 2 mg/kg, po; assay type: ADME, organism-based; details: in vivo
[10] = target: Ubiquitin carboxyl-terminal hydrolase 14 (Homo sapiens, UniProt P54578); assay: Inhibition of human His6-tagged USP14 expressed in Escherichia coli using Ubiquitin-Rhodamine110-glycine as substrate by fluorescence based analysis
[11] = target: Ubiquitin carboxyl-terminal hydrolase 45 (Homo sapiens, UniProt Q70EL2); assay: Inhibition of USP45 (unknown origin)
[12] = target: AMSH-like protease (Homo sapiens, UniProt Q96FJ0); assay: Inhibition of human GST-tagged AMSH-LP CD (264 to 436 residues) expressed in Escherichia coli assessed as cleavage of Ubiquitin-Rhodamine110-glycine to Ubiquitin and Rhodamine110-glycine using Ubiquitin-Rhodamine110-glycine as substrate by fluorescence based analysis
[13] = target: Ubiquitin carboxyl-terminal hydrolase 25 (Homo sapiens, UniProt Q9UHP3); assay: Inhibition of human GST-tagged USP25 expressed in Escherichia coli assessed as cleavage of Ubiquitin-Rhodamine110-glycine to Ubiquitin and Rhodamine110-glycine using Ubiquitin-Rhodamine110-glycine as substrate by fluorescence based analysis
Sequence of Ubiquitin carboxyl-terminal hydrolase 25 (Q9UHP3 whole entry): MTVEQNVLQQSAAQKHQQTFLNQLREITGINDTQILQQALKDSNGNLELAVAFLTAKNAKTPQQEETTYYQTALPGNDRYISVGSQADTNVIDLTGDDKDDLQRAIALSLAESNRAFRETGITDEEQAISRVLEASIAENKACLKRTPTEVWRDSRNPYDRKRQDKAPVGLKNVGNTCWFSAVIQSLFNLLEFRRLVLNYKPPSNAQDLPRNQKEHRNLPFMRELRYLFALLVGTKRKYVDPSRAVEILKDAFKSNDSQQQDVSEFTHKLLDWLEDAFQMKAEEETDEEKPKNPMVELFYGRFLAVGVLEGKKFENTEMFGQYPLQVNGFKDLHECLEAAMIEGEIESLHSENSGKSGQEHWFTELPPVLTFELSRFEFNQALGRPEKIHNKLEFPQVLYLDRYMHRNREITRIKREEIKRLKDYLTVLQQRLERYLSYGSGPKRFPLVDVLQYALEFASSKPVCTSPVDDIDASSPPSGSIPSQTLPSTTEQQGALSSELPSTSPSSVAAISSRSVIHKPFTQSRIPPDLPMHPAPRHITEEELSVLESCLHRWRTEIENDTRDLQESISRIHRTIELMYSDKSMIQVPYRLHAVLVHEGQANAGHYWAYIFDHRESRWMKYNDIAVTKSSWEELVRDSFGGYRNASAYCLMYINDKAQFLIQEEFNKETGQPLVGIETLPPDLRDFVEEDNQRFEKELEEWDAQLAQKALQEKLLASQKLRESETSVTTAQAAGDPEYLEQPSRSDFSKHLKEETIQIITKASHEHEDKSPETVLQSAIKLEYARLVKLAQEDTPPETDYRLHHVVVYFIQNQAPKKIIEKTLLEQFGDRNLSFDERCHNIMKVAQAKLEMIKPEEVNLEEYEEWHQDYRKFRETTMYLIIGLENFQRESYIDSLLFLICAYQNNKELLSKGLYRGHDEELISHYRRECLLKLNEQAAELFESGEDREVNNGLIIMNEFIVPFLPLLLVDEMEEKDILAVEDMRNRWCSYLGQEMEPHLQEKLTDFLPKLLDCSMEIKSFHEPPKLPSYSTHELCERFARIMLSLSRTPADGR

[14] = target: Cytochrome P450 3A4 (Homo sapiens, UniProt P08684); assay: Inhibition of CYP3A4 (unknown origin); assay type: ADME
Sequence of Cytochrome P450 3A4 (P08684 whole entry): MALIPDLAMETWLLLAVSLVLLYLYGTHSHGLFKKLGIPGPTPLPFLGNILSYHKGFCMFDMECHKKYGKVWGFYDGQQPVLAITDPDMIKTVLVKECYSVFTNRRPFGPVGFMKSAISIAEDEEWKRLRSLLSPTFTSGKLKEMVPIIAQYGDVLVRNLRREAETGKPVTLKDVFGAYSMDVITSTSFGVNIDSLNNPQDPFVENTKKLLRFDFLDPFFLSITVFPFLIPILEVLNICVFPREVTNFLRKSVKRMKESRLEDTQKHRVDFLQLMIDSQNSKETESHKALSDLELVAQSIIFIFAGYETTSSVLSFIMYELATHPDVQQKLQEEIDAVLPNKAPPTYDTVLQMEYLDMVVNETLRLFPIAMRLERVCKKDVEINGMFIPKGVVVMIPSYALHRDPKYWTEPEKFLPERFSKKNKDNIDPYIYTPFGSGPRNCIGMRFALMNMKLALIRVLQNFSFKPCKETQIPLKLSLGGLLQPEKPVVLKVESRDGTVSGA

[15] = target: Deubiquitinase OTUD6B (Homo sapiens, UniProt Q8N6M0); assay: Inhibition of human GST-tagged OTUD6B expressed in Escherichia coli assessed as cleavage of Ubiquitin-Rhodamine110-glycine to Ubiquitin and Rhodamine110-glycine using Ubiquitin-Rhodamine110-glycine as substrate by fluorescence based analysis
[16] = target: Ubiquitin carboxyl-terminal hydrolase 35 (Homo sapiens, UniProt Q9P2H5); assay: Inhibition of USP35 (unknown origin)
Sequence of Ubiquitin carboxyl-terminal hydrolase 35 (Q9P2H5 whole entry): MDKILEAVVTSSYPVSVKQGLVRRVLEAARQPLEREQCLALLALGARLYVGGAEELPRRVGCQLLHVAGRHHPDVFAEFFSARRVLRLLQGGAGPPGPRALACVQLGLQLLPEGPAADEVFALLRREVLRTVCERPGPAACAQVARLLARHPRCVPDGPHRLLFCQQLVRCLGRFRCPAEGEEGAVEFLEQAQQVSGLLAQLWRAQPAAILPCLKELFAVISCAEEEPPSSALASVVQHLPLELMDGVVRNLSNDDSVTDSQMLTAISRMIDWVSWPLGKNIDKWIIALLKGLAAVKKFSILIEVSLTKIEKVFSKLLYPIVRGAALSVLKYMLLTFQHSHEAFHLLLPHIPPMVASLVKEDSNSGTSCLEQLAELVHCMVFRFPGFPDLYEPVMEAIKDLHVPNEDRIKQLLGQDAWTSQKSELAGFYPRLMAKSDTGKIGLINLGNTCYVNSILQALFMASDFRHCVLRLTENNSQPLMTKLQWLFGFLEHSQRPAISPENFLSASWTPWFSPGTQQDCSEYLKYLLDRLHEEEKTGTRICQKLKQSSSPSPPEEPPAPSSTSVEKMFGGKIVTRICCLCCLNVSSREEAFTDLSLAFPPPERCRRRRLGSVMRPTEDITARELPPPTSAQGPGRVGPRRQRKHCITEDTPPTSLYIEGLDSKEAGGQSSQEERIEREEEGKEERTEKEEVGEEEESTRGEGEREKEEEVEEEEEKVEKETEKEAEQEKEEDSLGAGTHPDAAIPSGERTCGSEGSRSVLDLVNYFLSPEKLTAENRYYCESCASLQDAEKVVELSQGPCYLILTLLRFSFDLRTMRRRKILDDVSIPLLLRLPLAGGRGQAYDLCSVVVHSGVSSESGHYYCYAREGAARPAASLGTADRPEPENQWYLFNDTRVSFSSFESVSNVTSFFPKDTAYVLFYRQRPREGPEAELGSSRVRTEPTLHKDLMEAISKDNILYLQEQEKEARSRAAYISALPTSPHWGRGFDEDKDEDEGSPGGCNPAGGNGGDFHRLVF

[17] = target: T1, Ubiquitin carboxyl-terminal hydrolase 47 (Homo sapiens, UniProt Q96K76); assay: Inhibition of USP47 (unknown origin) by biochemical assay
T1 sequence (Q96K76 whole entry): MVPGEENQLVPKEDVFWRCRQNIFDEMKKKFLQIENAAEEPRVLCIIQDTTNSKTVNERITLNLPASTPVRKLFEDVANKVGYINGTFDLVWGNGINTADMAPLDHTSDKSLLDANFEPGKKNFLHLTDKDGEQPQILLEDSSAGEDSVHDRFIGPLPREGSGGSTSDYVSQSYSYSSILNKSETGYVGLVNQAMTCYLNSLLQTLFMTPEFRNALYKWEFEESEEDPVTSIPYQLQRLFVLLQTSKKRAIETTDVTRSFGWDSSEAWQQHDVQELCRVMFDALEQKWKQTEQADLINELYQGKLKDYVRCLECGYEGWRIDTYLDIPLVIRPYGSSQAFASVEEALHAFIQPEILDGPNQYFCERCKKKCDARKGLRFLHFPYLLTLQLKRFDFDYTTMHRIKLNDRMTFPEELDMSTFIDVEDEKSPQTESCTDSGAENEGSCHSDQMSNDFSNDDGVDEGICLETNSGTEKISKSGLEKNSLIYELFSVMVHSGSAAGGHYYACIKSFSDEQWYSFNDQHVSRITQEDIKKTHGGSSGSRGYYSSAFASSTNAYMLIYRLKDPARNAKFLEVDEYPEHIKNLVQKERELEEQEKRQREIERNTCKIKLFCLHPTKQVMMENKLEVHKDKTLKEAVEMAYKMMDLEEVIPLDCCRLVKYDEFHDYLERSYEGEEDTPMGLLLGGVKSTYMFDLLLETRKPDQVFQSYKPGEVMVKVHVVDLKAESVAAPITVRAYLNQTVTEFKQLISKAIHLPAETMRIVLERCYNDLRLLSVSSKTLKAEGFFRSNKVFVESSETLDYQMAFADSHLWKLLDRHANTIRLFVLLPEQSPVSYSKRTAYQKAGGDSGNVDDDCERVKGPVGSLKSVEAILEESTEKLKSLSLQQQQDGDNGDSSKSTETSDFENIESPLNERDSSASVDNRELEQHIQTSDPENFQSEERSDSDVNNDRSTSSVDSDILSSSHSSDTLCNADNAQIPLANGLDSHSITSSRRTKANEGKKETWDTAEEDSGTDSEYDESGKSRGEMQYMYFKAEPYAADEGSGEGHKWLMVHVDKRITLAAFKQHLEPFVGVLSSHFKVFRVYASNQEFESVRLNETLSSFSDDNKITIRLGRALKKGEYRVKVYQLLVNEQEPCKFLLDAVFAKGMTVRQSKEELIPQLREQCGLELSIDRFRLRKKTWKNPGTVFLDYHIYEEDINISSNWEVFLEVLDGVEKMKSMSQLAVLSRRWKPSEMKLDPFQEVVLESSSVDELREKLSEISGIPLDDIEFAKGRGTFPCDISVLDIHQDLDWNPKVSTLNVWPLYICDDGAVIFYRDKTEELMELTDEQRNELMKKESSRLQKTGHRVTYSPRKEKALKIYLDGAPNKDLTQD

Sequence of Voltage-gated inwardly rectifying potassium channel KCNH2 (Q12809 whole entry, the tested form may be a part): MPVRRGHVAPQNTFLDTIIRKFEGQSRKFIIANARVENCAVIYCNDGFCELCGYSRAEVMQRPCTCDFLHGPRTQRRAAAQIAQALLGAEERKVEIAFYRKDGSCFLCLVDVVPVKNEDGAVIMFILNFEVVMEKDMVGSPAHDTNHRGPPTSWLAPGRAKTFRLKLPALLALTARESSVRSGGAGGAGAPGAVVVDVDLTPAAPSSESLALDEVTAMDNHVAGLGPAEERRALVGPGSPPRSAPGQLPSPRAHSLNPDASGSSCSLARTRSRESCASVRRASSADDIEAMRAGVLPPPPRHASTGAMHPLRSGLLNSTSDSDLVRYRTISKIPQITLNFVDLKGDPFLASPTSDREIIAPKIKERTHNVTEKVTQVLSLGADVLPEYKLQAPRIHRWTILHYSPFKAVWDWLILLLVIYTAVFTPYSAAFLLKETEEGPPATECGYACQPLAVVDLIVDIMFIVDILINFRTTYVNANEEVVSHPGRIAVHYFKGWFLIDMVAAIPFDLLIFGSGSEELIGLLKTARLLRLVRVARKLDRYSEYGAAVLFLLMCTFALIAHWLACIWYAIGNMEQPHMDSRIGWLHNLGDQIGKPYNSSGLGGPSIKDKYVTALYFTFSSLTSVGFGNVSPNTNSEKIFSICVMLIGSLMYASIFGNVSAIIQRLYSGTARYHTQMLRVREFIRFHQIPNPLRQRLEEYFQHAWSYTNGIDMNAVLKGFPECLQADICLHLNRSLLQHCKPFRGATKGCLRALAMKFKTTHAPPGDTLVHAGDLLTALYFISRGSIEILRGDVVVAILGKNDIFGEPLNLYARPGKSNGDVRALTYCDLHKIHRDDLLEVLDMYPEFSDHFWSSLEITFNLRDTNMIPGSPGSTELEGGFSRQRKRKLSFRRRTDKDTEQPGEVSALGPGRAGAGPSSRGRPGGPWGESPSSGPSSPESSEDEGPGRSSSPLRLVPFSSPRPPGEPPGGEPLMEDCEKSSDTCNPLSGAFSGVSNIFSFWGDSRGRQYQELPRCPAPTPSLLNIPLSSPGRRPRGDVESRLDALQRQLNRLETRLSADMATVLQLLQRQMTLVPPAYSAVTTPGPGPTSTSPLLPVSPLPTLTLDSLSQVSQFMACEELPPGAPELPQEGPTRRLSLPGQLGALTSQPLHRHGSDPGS

## Cc1cc(Cl)cc(-c2ccnc3cc(CN4C(=O)C5C(C4=O)C5(C)C)sc23)c1O[C@@H]1CCNC[C@@H]1C (some centres not stated)
[1]
  IC50: 0.4 µM
[2]
  IC50: > 10 µM
[3]
  IC50: > 10 µM
[4]
  IC50: > 10 µM
[5]
  IC50: > 10 µM
[6]
  IC50: > 10 µM
[7]
  IC50: > 10 µM
[8]
  IC50: > 10 µM
[9]
  AUC: 4.7 µg·h/mL
[10]
  IC50: > 10 µM
[11]
  IC50: > 10 µM
[12]
  IC50: > 10 µM
[13]
  IC50: > 10 µM
[14]
  INH: 6.2 µM
[15]
  IC50: > 10 µM
[16]
  IC50: > 10 µM
[17]
  IC50: > 10 µM
